How the values were obtained:
IFN = assay: Cytokine Induction in Human Cells: interferon (IFN) secreted by PBMCs, A549/encephalomyocarditis bioassay; format: cell-based; conditions: 18 to 24 hours
Text: (§1) An in vitro human blood cell system was used to assess cytokine induction by compounds of the invention. Activity is based on the measurement of interferon and tumor necrosis factor (ℑ) (IFN and TNF, respectively) secreted into culture media as described by Testerman et. al. In “Cytokine Induction by the Immunomodulators Imiquimod and S-27609”, Journal of Leukocyte Biology, 58, 365-372 (September, 1995). Blood Cell Preparation for Culture
(§2) Whole blood is collected by venipuncture into EDTA vacutainer tubes from healthy human donors. Peripheral blood mononuclear cells (PBMCs) are separated from whole blood by Histopaque®-1077 (Sigma Chemicals, St. Louis, Mo.) density gradient centrifugation. The PBMCs are suspended at 1.5-2×10^6 cells/mL in RPMI 1640 medium containing 10% fetal bovine serum, 2 mM L-glutamine and 1% penicillin/streptomycin solution (RPMI complete). 1 mL portions of PBMC suspension are added to 24 well flat bottom sterile tissue culture plates.
(§3) The compounds are solubilized in dimethyl sulfoxide (DMSO). The DMSO concentration should not exceed a final concentration of 1% for addition to the culture wells. The compounds are generally tested in a concentration range of from 0.1 to 100 μM.
(§4) The solution of test compound is added to the wells containing 1 mL of PBMCs in media. The plates are covered with plastic lids, mixed gently and then incubated for 18 to 24 hours at 37° C. with a 5% carbon dioxide atmosphere.
(§5) Following incubation the plates are centrifuged for 5-10 minutes at 1000 rpm (˜200×g) at 4° C. The cell culture supernatant is removed with a sterile polypropylene pipet and transferred to a 2 mL sterile cryotube. Samples are maintained at −70° C. until analysis.
Interferon is determined by bioassay using A549 human lung carcinoma cells challenged with encephalomyocarditis. The details of the bioassay method have been described by G. L. Brennan and L. H. Kronenberg in “Automated Bioassay of Interferons in Micro-test Plates”, Biotechniques, June/July 78, 1983, incorporated herein by reference. Briefly stated the method is as follows: A549 cells are incubated with samples and standard interferon dilutions at 37° C. for 24 hours. The incubated cells are then infected with an inoculum of encephalomyocarditis virus. The infected cells are incubated for an additional 24 hours at 37° C. before quantifying for viral cytopathic effect. The viral cytopathic effect is quantified by staining followed by visual scoring of the plates. Results are expressed as alpha reference units/mL based on the value obtained for NIH Human Leukocyte IFN standard.

TNF = assay: Cytokine Induction in Human Cells: tumor necrosis factor (TNF) secreted by PBMCs, ELISA; format: cell-based; conditions: 18 to 24 hours
Text: as §1, §2, §3, §4, §5
Tumor necrosis factor (ℑ) (TNF) concentration is determined using an ELISA kit available from Genzyme, Cambridge, Mass. The results are expressed as pg/mL.
Also: call rule not given here.

| Structure (SMILES) | IFN induction (IFN; Dose Concentration 0.1 μM) | IFN induction (IFN; Dose Concentration 1.0 μM) | IFN induction (IFN; Dose Concentration 10.0 μM) | IFN induction (IFN; Dose Concentration 100.0 μM) | TNF induction (TNF; Dose Concentration 0.1 μM) | TNF induction (TNF; Dose Concentration 1.0 μM) | TNF induction (TNF; Dose Concentration 10.0 μM) | TNF induction (TNF; Dose Concentration 100.0 μM) |
| --- | --- | --- | --- | --- | --- | --- | --- | --- |
| CCCCc1nc2c(N)nc3cccnc3c2n1CCCCNC(=O)c1cccnc1Cl [Example 183] | − | − | − | − | − and + | − and + | − and + | − |
| CCCCc1nc2c(N)nc3cccnc3c2n1CCCCNC(=O)c1ccccc1 [Example 52, N-[4-(4-Amino-2-butyl-1H-imidazo[4,5-c][1,5]naphthyridin-1-yl)butyl]benzamide] |  | + | + | − |  | + | + | − |
| CCCCc1nc2c(N)nc3cccnc3c2n1CCCCNC(=O)c1ccc(C(=O)c2ccccc2)cc1 [Example 113, N^1-[4-(4-Amino-2-butyl-1H-imidazo[4,5-c][1,5]naphthyridin-1-yl)butyl]-4-benzoylbenzamide] | − | + | + | + | − | + | + | + |
| CCCCc1nc2c(N)nc3cccnc3c2n1CCNS(=O)(=O)c1ccccc1 [Example 117, N^1-[4-(4-Amino-2-butyl-1H-imidazo[4,5-c][1,5]naphthyridin-1-yl)ethyl]benzenesulfonamide] | − | − | + | + | − | − | + | + |
| CCCCc1nc2c(N)nc3cccnc3c2n1CCNC(=O)Cc1ccc(OC)cc1 [Example 152] | − | − | + | + | − | − | + | + |
| CCCCc1nc2c(N)nc3cccnc3c2n1CCNC(=O)c1c(OC)cccc1OC [Example 128] |  | ± | + | + |  | − | ± | + |
| CCCCc1nc2c(N)nc3cccnc3c2n1CCCCNC(=O)c1cccc(Br)c1 [Example 153] | − | + | + | − | − | + | + | − |
| CCCCc1nc2c(N)nc3cccnc3c2n1CCNC(=O)CCn1cc([N+](=O)[O-])nc1C [Example 209] | − | − | + | + | − | − | + | + |
| CCCCc1nc2c(N)nc3cccnc3c2n1CCNC(=O)CCN1C(=O)c2ccccc2C1=O [Example 211] | − | − | + | + | − | − | + | + |
| CCCCc1nc2c(N)nc3cccnc3c2n1CCCCNC(=O)NCc1ccccc1 [Example 53, N-[4-(4-Amino-2-butyl-1H-imidazo[4,5-c][1,5]naphthyridin-1-yl)butyl]-N′-benzylurea] | + | + | + | + | − | + | + | − |
| CCCCc1nc2c(N)nc3cccnc3c2n1CCNC(=O)c1cnc(C)cn1 [Example 205] | + | + | + | + | − | + | + | + |
| CCCCc1nc2c(N)nc3cccnc3c2n1CCNC(=O)c1ccc(C(=O)OC)cc1 [Example 150] | − | − | + | + | − | − | + | + |
| CCCCc1nc2c(N)nc3cccnc3c2n1CCCCNC(=O)OCc1ccccc1 [Example 56, Benzyl N-[4-(4-Amino-2-butyl-1H-imidazo[4,5-c][1,5]naphthyridin-1-yl)butyl]carbamate] | − | + | + | − | − | − | + | − |
| CCCCc1nc2c(N)nc3cccnc3c2n1CCNC(=O)c1c(C)cc(C)cc1C [Example 143] |  | − | + | + |  | − | ± | − |
| CCCCc1nc2c(N)nc3cccnc3c2n1CCNC(=O)C1CCCC1 [Example 137] |  | + | + | + |  | − | ± | + |
| CCCCc1nc2c(N)nc3cccnc3c2n1CCCCNC(=O)CCC1CCCC1 [Example 175] | − | + | + | − | − | + | + | − |
| CCCCc1nc2c(N)nc3cccnc3c2n1CCCCNC(=O)CCCCCCCCC(=O)OC [Example 158] | − | + | + | + | − | − | + | − |
| CCCCc1nc2c(N)nc3cccnc3c2n1CCNS(C)(=O)=O [Example 116, N^1-[4-(4-Amino-2-butyl-1H-imidazo[4,5-c][1,5]naphthyridin-1-yl)ethyl]methanesulfonamide] | − | + | + | + | − | + | + | + |
| CCCCc1nc2c(N)nc3cccnc3c2n1CCNC(=O)c1ccc(Br)o1 [Example 206] | + | + | + | + | − | + | + | + |
| CCCCc1nc2c(N)nc3cccnc3c2n1CCCCNC(=O)C1(c2ccc(Cl)cc2)CCCC1 [Example 155] | − | + | + | + | − | − | + | + |
| CCCCc1nc2c(N)nc3cccnc3c2n1CCCCNC(=O)CC(C)(C)C [Example 172] | + | + | + | + | − | + | + | + |
| CCCCc1nc2c(N)nc3cccnc3c2n1CCCCNC(=O)Cc1ccccc1 [Example 55, N-[4-(4-Amino-2-butyl-1H-imidazo[4,5-c][1,5]naphthyridin-1-yl)butyl]phenylaceatamide] |  | + | + | + |  | + | + | − |
| CCCCc1nc2c(N)nc3cccnc3c2n1CCCCNC(=O)c1cc(C(F)(F)F)cc(C(F)(F)F)c1 [Example 161] | ± | + | + | + | − | − | + | + |
